Source: patent publication US12637471B2, “Heterocyclic compounds, compositions, methods of preparation and uses thereof” (Organon R&D Finland Ltd, priority 2021, dated 2026)

What was measured:
Format in all cases: biochemical
[1] = molecular target: T1, Recombinant human AKR1C3 (17β-HSD5) protein (Homo sapiens, UniProt P42330); assay: Inhibition of AKR1C3 (17β-hydroxysteroid dehydrogenase type 5) enzyme, fluorescence assay; conditions: inhibitor at 500 nM
T1 construct: made in house; host or cells: E. coli
T1 sequence (P42330 1-323): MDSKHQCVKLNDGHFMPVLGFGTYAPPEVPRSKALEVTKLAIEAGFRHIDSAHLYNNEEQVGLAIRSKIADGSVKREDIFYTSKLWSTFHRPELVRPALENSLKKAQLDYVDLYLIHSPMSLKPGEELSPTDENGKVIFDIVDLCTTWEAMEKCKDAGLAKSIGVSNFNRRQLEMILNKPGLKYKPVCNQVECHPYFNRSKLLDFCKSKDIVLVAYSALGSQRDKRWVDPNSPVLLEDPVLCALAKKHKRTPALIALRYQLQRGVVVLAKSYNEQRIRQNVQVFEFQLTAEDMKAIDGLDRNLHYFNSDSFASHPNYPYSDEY
In short: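 Percent inhibition at 500 nM compound, derived from substrate conversion; product alcohol measured by fluorescence (ex 420, em 510 nm) against a 1 μM–10 nM standard curve. Reaction: 27 nM recombinant AKR1C3, 1 μM ketone substrate, 1 mM NADPH, phosphate/EDTA buffer pH 7.4, 1% DMSO, RT for 60–120 min.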

[2] = molecular target: T2, 17β-Hydroxysteroid Dehydrogenase Type 2 Enzyme (17β-HSD2) (Homo sapiens, UniProt P37059); assay: Inhibition of the 17β-hydroxysteroid dehydrogenase type 2 enzyme, 3H-testosterone conversion; conditions: inhibitor at 10 μM
T2 construct: made in house; host or cells: Sf-9 insect cells (baculovirus)
T2 sequence (P37059 1-387): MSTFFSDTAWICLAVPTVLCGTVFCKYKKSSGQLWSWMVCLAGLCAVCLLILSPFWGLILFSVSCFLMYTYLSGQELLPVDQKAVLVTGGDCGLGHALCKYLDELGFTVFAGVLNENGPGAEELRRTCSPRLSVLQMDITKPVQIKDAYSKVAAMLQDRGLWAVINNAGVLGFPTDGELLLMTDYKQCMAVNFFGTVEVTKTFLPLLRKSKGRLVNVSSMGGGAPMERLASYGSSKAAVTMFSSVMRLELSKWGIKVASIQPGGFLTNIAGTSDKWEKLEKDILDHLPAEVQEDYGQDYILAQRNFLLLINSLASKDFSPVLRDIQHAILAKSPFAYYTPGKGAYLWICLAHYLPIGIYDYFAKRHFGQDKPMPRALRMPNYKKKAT
In short: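 Single-point screen at 10 μM inhibitor, 1% DMSO: Sf-9-expressed human enzyme (105 nM), NAD 1 mM, ³H-labelled testosterone 56.25 nM, pH 8.5 phosphate/EDTA buffer, 30 min, room temperature. After TCA quench, substrate and product radioactivity quantified by UPLC with scintillation detection; inhibition percent from conversion.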

[3] = molecular target: T3, Recombinant human aldo-keto reductase family 1 member C2 (AKR1C2) protein (Homo sapiens, UniProt P52895); assay: Inhibition of the aldo-keto reductase family 1 member C2, 3H-dihydrotestosterone conversion; conditions: inhibitor at 10 μM
T3 construct: made in house; host or cells: Sf-9 insect cells (baculovirus)
T3 sequence (P52895 1-323): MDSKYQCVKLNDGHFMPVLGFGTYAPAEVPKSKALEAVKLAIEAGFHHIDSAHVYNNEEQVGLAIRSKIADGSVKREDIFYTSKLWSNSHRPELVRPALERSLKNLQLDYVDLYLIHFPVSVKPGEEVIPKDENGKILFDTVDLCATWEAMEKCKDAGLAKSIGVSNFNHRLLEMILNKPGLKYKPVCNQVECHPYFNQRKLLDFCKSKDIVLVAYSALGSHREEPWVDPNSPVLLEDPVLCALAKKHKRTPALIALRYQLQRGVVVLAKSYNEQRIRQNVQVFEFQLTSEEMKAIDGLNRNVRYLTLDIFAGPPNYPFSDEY
In short: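 Single-point screen at 10 μM inhibitor, 1% DMSO: [3H]DHT (6.25 nM) reduction to 3α-diol by baculovirus-made AKR1C2 (13.6 nM), pH 7.4 phosphate buffer, 1 mM NADPH, 37 °C for 45 min. Radio-UPLC quantified product versus substrate to give percent inhibition.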

| Compound | inhibition at 0.5 µM [1] | inhibition at 10 µM [2] | inhibition at 10 µM [3] |
| --- | --- | --- | --- |
| CCOC1CCN(C(=O)N2CCC(=C(C#N)c3ccc(F)cc3F)CC2)CC1 [Compound 137, 2-(2,4-difluorophenyl)-2-(1-(4-ethoxypiperidine-1-carbonyl)piperidin-4-ylidene)acetonitrile] | 97% | 6% | 18% |
| N#CC(=C1CCN(C(=O)N2CCc3nocc3C2)CC1)c1cccc2[nH]ncc12 [Compound 138, 2-(1H-indazol-4-yl)-2-(1-(4,5,6,7-tetrahydroisoxazolo[4,3-c]pyridine-5-carbonyl)piperidin-4-ylidene)acetonitrile] | 98% | 13% | 31% |
| CC(C)OC1CCN(C(=O)N2CCC(=C(C#N)c3cccc(Cl)c3)CC2)CC1 [Compound 139, 2-(3-chlorophenyl)-2-(1-(4-isopropoxypiperidine-1-carbonyl)piperidin-4-ylidene)acetonitrile] | 93% | 27% | 8% |
| N#CC(=C1CCN(C(=O)N2CCC(CCO)CC2)CC1)c1cccc(Cl)c1 [Compound 140, 2-(3-chlorophenyl)-2-(1-(4-(2-hydroxyethyl)piperidine-1-carbonyl)piperidin-4-ylidene)acetonitrile] | 96% | 23% | 21% |
| N#CC(=C1CCN(C(=O)N2CCc3nocc3C2)CC1)c1ccc(Cl)cc1 [Compound 141, 2-(4-chlorophenyl)-2-(1-(4,5,6,7-tetrahydroisoxazolo[4,3-c]pyridine-5-carbonyl)piperidin-4-ylidene)acetonitrile] | 98% | 7% | 33% |
| N#CC(=C1CCN(C(=O)N2CCC(CCCO)CC2)CC1)c1ccc(F)cc1 [Compound 142, 2-(4-fluorophenyl)-2-(1-(4-(3-hydroxypropyl)piperidine-1-carbonyl)piperidin-4-ylidene)acetonitrile] | 91% | 4% | 3% |
| CC(=O)N1CCN(C(=O)N2CCC(=C(C#N)c3ccc(F)cc3)CC2)CC1 [Compound 143, 2-(1-(4-acetylpiperazine-1-carbonyl)piperidin-4-ylidene)-2-(4-fluorophenyl)acetonitrile] | 93% | 7% | 9% |
| COC1CCN(C(=O)N2CCC(=C(C#N)c3cccc4[nH]ncc34)CC2)CC1 [Compound 144, 2-(1H-indazol-4-yl)-2-(1-(4-methoxypiperidine-1-carbonyl)piperidin-4-ylidene)acetonitrile] | 100% | 16% | 5% |
| N#CC(=C1CCN(C(=O)N2CCC(C(F)(F)F)CC2)CC1)c1cccc2[nH]ncc12 [Compound 145, 2-(1H-indazol-4-yl)-2-(1-(4-(trifluoromethyl)piperidine-1-carbonyl)piperidin-4-ylidene) acetonitrile] | 97% | 9% | 1% |
| COC1CCN(C(=O)N2CCC(=C(C#N)c3ccc(C(F)(F)F)cc3)CC2)CC1 [Compound 146, 2-(1-(4-methoxypiperidine-1-carbonyl)piperidin-4-ylidene)-2-(4-(trifluoromethyl)phenyl)acetonitrile] | 100% | 15% | 2% |
| N#CC(=C1CCN(C(=O)N2CCOCC2)CC1)c1ccc(C(F)(F)F)cc1 [Compound 147, 2-(1-(morpholine-4-carbonyl)piperidin-4-ylidene)-2-(4-(trifluoromethyl)phenyl)acetonitrile] | 99% | 4% | 5% |
| N#CC(=C1CCN(C(=O)N2CCC(S(N)(=O)=O)CC2)CC1)c1ccc(C(F)(F)F)cc1 [Compound 148, 1-(4-(cyano(4-(trifluoromethyl)phenyl)methylene)piperidine-1-carbonyl)piperidine-4-sulfonamide] | 90% | 7% | 6% |
| N#CC(=C1CCN(C(=O)N2CCC(CCO)CC2)CC1)c1ccc(C(F)(F)F)cc1 [Compound 149, 2-(1-(4-(2-hydroxyethyl)piperidine-1-carbonyl)piperidin-4-ylidene)-2-(4-(trifluoromethyl)phenyl)acetonitrile] | 94% | 9% | 7% |
| N#CC(=C1CCN(C(=O)N2CCn3nncc3C2)CC1)c1ccc(C(F)(F)F)cc1 [Compound 150, 2-(1-(4,5,6,7-tetrahydro-[1,2,3]triazolo[1,5-a]pyrazine-5-carbonyl)piperidin-4-ylidene)-2-(4-(trifluoromethyl)phenyl)acetonitrile] | 100% | 6% | 21% |
| CC(O)C1CCN(C(=O)N2CCC(=C(C#N)c3ccc(C(F)(F)F)cc3)CC2)CC1 (stereo not drawn) [Compound 151, 2-(1-(4-(1-hydroxyethyl)piperidine-1-carbonyl)piperidin-4-ylidene)-2-(4-(trifluoromethyl)phenyl)acetonitrile] | 93% | 18% | 11% |
| N#CC(=C1CCN(C(=O)N2CCn3ncnc3C2)CC1)c1ccc(C(F)(F)F)cc1 [Compound 152, 2-(1-(5,6,7,8-tetrahydro-[1,2,4]triazolo[1,5-a]pyrazine-7-carbonyl)piperidin-4-ylidene)-2-(4-(trifluoromethyl)phenyl)acetonitrile] | 99% | 8% | 4% |
| COCC1CCN(C(=O)N2CCC(=C(C#N)c3cccc(Cl)c3)CC2)CC1 [Compound 153, 2-(3-chlorophenyl)-2-(1-(4-(methoxymethyl)piperidine-1-carbonyl)piperidin-4-ylidene)acetonitrile] | 95% | 26% | 14% |
| CC(O)C1CCN(C(=O)N2CCC(=C(C#N)c3cccc(Cl)c3)CC2)CC1 (stereo not drawn) [Compound 154, 2-(3-chlorophenyl)-2-(1-(4-(1-hydroxyethyl)piperidine-1-carbonyl)piperidin-4-ylidene)acetonitrile] | 98% | 26% | 14% |
| N#CC(=C1CCN(C(=O)N2CCn3nncc3C2)CC1)c1cccc(Cl)c1 [Compound 155, 2-(3-chlorophenyl)-2-(1-(4,5,6,7-tetrahydro-[1,2,3]triazolo[1,5-a]pyrazine-5-carbonyl)piperidin-4-ylidene)acetonitrile] | 99% | 19% | 21% |
| N#CC(=C1CCN(C(=O)N2C3CCC2COC3)CC1)c1cccc(Cl)c1 [Compound 156, 2-(1-(3-oxa-8-azabicyclo[3.2.1]octane-8-carbonyl)piperidin-4-ylidene)-2-(3-chlorophenyl)acetonitrile] | 99% | 12% | 8% |
| N#CC(=C1CCN(C(=O)N2CCn3ncnc3C2)CC1)c1cccc(Cl)c1 [Compound 157, 2-(3-chlorophenyl)-2-(1-(5,6,7,8-tetrahydro-[1,2,4]triazolo[1,5-a]pyrazine-7-carbonyl)piperidin-4-ylidene)acetonitrile] | 99% | 8% | 2% |
